What was measured:
[1] = target: cGMP-inhibited 3',5'-cyclic phosphodiesterase 3A (Homo sapiens, UniProt Q14432); format: functional
B2 bradykinin receptor = target: T1, B2 bradykinin receptor (Homo sapiens, UniProt P30411)
T1 sequence (P30411 whole entry): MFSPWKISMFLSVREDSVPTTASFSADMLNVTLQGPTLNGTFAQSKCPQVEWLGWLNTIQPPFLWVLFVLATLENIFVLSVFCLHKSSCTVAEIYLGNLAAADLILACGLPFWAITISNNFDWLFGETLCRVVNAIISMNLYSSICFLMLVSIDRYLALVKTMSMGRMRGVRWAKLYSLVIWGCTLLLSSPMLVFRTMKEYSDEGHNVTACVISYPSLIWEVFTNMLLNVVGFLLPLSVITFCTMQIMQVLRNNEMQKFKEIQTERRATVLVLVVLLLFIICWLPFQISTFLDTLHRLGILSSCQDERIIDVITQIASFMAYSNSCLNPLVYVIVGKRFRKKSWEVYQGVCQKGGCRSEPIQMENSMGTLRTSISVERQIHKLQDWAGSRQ

Histamine H2 receptor = Histamine H2 receptor (Homo sapiens, UniProt P25021); format: functional, cell-based
Histamine H2 receptor, sequence (P25021 whole entry): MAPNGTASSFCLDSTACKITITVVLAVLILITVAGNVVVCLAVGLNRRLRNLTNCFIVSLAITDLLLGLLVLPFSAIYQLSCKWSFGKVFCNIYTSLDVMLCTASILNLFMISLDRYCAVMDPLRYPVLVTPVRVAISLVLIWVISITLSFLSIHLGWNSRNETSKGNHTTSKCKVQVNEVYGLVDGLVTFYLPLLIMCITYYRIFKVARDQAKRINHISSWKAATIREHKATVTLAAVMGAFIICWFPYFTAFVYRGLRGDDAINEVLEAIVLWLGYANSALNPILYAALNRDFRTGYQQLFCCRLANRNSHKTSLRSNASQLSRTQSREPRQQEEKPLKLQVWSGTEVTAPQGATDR

[2] = target: T2, Amine oxidase [flavin-containing] A (Homo sapiens, UniProt P21397); format: functional
T2 sequence (P21397 whole entry): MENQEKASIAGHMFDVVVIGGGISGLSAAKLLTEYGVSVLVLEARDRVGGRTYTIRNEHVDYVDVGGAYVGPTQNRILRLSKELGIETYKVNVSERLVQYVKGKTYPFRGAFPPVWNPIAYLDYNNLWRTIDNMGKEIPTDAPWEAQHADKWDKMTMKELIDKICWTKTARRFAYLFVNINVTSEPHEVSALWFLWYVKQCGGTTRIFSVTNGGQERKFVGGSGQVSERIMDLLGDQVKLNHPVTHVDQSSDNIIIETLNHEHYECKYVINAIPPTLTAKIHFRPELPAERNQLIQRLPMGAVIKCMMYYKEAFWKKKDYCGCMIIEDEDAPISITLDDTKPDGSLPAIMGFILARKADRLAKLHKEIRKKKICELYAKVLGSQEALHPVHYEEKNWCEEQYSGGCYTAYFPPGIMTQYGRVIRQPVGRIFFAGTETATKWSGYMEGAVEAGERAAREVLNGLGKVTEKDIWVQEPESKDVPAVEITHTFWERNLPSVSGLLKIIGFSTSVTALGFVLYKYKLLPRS

[3] = target: T3, Cholecystokinin receptor type A (Homo sapiens, UniProt P32238)
T3 sequence (P32238 whole entry): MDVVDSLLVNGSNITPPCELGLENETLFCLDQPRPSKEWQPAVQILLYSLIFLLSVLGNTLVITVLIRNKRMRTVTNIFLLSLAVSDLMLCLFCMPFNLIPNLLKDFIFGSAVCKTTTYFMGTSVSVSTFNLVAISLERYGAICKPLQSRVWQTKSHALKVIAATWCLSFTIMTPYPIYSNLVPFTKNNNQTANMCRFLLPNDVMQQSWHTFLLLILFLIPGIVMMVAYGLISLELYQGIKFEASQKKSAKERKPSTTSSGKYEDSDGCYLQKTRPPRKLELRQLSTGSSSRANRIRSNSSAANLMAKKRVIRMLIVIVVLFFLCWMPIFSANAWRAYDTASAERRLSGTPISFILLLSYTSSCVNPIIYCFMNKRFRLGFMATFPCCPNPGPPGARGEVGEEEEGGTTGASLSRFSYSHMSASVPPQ

[4] = target: Kappa-type opioid receptor (Homo sapiens, UniProt P41145)
Kappa-type opioid receptor, sequence (P41145 whole entry): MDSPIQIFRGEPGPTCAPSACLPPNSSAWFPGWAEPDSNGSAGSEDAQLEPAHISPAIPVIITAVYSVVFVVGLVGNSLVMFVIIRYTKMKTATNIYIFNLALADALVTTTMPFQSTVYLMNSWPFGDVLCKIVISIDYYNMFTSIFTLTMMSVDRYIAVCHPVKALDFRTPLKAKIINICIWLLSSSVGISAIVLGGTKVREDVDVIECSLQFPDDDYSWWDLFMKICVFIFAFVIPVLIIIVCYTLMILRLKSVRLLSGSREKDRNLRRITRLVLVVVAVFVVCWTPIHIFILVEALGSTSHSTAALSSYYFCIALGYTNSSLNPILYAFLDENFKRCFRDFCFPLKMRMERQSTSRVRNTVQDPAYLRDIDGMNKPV

[5] = target: Beta-1 adrenergic receptor (Homo sapiens, UniProt P08588); format: functional
Beta-1 adrenergic receptor, sequence (P08588 whole entry): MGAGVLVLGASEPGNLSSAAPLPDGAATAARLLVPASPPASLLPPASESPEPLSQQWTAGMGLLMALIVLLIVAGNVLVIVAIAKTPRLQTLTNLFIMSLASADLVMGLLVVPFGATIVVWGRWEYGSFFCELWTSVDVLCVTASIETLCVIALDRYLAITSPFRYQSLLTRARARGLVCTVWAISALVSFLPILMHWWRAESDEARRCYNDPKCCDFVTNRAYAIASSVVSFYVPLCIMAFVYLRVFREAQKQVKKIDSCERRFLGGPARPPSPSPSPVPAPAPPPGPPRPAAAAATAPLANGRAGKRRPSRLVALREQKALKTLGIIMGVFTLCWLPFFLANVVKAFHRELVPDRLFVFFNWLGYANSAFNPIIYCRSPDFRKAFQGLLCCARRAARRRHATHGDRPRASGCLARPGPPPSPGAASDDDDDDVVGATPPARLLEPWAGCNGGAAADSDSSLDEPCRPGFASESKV

[6] = target: T4, Neuropeptide Y receptor type 1 (Homo sapiens, UniProt P25929)
T4 sequence (P25929 whole entry): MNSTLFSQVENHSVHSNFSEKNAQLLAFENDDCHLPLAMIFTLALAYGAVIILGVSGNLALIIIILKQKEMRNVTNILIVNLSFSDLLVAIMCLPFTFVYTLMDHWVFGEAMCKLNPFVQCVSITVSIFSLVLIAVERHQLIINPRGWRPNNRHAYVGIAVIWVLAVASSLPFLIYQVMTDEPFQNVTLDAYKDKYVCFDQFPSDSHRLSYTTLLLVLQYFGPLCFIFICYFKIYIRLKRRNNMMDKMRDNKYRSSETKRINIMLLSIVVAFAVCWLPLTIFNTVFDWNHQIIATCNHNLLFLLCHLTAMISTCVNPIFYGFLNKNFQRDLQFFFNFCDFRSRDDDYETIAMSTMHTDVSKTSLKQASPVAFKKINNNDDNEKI

[7] = target: T5, 5-hydroxytryptamine receptor 3A (Homo sapiens, UniProt P46098); format: functional
T5 sequence (P46098 whole entry): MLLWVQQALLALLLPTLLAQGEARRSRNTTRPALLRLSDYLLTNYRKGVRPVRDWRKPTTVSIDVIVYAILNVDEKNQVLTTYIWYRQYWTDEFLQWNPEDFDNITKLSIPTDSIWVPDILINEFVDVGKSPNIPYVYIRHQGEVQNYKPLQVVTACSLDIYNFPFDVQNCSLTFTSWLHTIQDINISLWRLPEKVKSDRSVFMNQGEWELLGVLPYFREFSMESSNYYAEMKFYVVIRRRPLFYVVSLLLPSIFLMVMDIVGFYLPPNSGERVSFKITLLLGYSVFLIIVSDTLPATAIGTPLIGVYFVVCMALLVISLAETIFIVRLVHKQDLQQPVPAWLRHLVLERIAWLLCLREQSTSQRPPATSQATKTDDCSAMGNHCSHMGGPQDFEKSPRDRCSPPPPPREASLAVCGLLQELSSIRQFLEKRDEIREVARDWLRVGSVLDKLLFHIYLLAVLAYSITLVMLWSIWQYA

Vasopressin V2 receptor = Vasopressin V2 receptor (Homo sapiens, UniProt P30518)
Vasopressin V2 receptor, sequence (P30518 whole entry): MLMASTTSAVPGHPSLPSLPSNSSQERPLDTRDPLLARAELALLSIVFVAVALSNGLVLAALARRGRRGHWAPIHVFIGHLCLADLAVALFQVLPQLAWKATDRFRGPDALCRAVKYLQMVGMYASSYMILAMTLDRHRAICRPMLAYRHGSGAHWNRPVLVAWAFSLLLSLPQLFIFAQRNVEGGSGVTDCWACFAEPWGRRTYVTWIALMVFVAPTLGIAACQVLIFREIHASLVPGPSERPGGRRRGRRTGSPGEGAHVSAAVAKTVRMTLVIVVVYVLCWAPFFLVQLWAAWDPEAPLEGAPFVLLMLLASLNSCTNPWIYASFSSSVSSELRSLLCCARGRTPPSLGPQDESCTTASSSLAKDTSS

[8] = target: Neuronal acetylcholine receptor subunit alpha-4 (Homo sapiens, UniProt P43681)
Neuronal acetylcholine receptor subunit alpha-4, sequence (P43681 whole entry): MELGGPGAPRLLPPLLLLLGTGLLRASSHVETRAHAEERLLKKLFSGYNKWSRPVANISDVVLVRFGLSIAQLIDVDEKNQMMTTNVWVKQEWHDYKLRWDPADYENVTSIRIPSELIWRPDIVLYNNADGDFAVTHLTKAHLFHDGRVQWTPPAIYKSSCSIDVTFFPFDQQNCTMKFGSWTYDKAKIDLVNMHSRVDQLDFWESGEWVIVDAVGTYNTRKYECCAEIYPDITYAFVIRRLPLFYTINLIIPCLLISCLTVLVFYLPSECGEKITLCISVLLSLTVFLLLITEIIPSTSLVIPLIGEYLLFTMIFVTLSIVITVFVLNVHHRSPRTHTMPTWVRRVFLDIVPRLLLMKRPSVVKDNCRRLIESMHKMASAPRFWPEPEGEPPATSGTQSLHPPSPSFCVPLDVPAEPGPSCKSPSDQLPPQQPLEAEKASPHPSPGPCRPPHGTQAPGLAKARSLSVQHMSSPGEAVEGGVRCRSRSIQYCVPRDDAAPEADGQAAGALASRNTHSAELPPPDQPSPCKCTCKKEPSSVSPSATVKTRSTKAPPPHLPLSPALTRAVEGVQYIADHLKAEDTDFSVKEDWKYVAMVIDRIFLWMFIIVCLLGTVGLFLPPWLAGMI
Note: assay procedure not described here.

cGMP-inhibited 3',5'-cyclic phosphodiesterase 3A, sequence (Q14432 whole entry): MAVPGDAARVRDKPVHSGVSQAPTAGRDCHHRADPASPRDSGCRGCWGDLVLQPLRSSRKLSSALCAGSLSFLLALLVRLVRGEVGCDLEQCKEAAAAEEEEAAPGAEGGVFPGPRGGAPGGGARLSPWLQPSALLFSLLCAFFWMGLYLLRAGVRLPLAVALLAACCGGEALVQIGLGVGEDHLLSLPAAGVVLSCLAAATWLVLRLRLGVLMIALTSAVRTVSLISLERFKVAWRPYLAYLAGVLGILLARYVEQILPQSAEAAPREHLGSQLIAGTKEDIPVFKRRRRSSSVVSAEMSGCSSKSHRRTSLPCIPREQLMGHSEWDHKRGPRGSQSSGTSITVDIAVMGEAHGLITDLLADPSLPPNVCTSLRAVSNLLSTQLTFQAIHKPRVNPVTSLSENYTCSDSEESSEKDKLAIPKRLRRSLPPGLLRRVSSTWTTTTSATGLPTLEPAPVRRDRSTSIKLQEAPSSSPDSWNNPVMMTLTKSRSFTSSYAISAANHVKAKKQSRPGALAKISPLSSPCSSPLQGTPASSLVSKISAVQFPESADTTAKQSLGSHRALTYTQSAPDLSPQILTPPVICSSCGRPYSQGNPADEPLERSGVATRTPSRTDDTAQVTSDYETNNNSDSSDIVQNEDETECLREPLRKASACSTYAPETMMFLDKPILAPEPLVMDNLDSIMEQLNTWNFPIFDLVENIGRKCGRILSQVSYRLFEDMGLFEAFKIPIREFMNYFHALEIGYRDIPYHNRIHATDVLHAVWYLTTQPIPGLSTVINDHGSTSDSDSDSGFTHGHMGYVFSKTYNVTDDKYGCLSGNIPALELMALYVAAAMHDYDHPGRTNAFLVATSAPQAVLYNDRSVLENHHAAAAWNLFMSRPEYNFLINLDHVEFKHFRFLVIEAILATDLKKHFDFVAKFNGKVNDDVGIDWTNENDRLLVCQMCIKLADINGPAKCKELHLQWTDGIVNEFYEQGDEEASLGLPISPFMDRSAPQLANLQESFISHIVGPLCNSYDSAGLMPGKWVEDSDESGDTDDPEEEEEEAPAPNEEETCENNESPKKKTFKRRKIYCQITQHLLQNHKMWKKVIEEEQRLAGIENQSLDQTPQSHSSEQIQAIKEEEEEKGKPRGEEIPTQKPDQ

Row | Structure (SMILES) | AC50 [1] | AC50 (B2 bradykinin receptor) | AC50 (Histamine H2 receptor) | AC50 [2] | AC50 [3] | AC50 [4] | AC50 [5] | AC50 [6] | AC50 [7] | AC50 (Vasopressin V2 receptor) | AC50 [8]
1 | C[C@]12CC[C@H](O)CC1=CC[C@@H]1[C@@H]2CC[C@]2(C)C(c3cccnc3)=CC[C@@H]12 [ABIRATERONE] | > 30 µM | > 30 µM | > 10 µM | > 10 µM | > 30 µM | > 10 µM | > 30 µM | > 30 µM | > 30 µM | > 30 µM | > 10 µM
2 | CN(C)C(=O)Oc1cc(OC(=O)N(C)C)cc(C(O)CNC(C)(C)C)c1 (stereo unspecified) [BAMBUTEROL] | – | > 30 µM | – | – | > 30 µM | – | > 30 µM | > 30 µM | – | > 30 µM | > 30 µM
3 | C[C@H]1C[C@H]2[C@@H]3CCC4=CC(=O)C=C[C@]4(C)[C@@]3(Cl)[C@@H](O)C[C@]2(C)[C@@]1(O)C(=O)CO [BECLOMETHASONE] | > 30 µM | > 30 µM | – | > 10 µM | > 30 µM | > 10 µM | > 10 µM | > 30 µM | > 30 µM | > 30 µM | > 10 µM
4 | NS(=O)(=O)c1cc(C2(O)NC(=O)c3ccccc32)ccc1Cl (stereo unspecified) [CHLORTHALIDONE] | > 30 µM | > 10 µM | > 10 µM | > 10 µM | > 10 µM | > 10 µM | > 10 µM | > 10 µM | > 30 µM | > 10 µM | > 10 µM
5 | C[C@@H]1CCC[C@H](C)N1NC(=O)c1ccc(Cl)c(S(N)(=O)=O)c1 [CLOPAMIDE] | > 30 µM | > 30 µM | > 30 µM | > 30 µM | > 30 µM | > 30 µM | > 30 µM | > 30 µM | > 30 µM | > 30 µM | > 30 µM
6 | COc1ccc2c(c1)[C@]13CCCC[C@@H]1[C@H](C2)N(C)CC3 [DEXTROMETHORPHAN] | > 30 µM | > 30 µM | > 10 µM | > 10 µM | > 30 µM | – | > 10 µM | > 30 µM | > 10 µM | > 30 µM | > 10 µM
7 | O=c1oc2ccccc2c(O)c1Cc1c(O)c2ccccc2oc1=O [DICUMAROL] | > 10 µM | > 10 µM | > 10 µM | > 10 µM | > 10 µM | > 10 µM | > 10 µM | > 10 µM | > 30 µM | > 10 µM | > 10 µM
8 | O=C(O)CSCC(=O)NC1CCSC1=O (stereo unspecified) [ERDOSTEINE] | > 30 µM | > 30 µM | > 30 µM | > 30 µM | > 30 µM | > 30 µM | > 30 µM | > 30 µM | > 30 µM | > 30 µM | > 30 µM
